# Test results as given in US8648103B2, “Nitrogen-containing aromatic heterocyclyl compound” (Daiichi Sankyo Company, Limited, priority 2008, dated 2014).
# Test system: Human subcutaneous adipocytes
# Assay: Adipocyte lipolysis assay (suppression of isoproterenol-stimulated fatty acid release)
# Format: cell-based
# Conditions: Homo sapiens, Adipocyte; test compound concentration giving 50% fatty acid concentration reduction percentage in culture supernatant; 1 μM isoproterenol, 5 hours incubation; reduction by 100 μM nicotinic acid set at 100%
# Excerpt: The suppressive or promoting activity of a test compound on the lipolysis of neutral fat can be assayed according to an adipocyte lipolysis assay as a cell line assay. If a beta adrenoceptor is stimulated with isoproterenol or the like in adipocytes, lipolysis action in which neutral fat accumulated in the cells is decomposed into fatty acid and glycerol can be promoted, and as a result, the amount of such fatty acid or glycerol released out of the cells can be increased. When a test compound that suppresses lipolysis is added to adipocytes, lipolysis-promoting action by isoproterenol stimulation is reduced, and the concentration of fatty acid or glycerol in a medium is decreased. Accordingly, the suppressive activity of a test compound on lipolysis can be assayed by measuring the reduction percentage of the fatty acid concentration or glycerol concentration in a culture supernatant. Likewise, the promoting activity of a test compound on lipolysis can be assayed by measuring the increase percentage of the fatty acid concentration or glycerol concentration in a medium.
# • (1) Human subcutaneous adipocytes disseminated onto a 96 well (Dainippon Sumitomo Pharma Co., Ltd.: F-SA-1096) • (2) Adipocyte Maintenance Medium (Dainippon Sumitomo Pharma Co., Ltd.: AM 1) • (3) Lipolysis assay buffer [137 mM NaCl, 5 mM KCl, 4.2 mM NaHCO3, 1.3 mM CaCl2, 0.5 mM KH2PO4, 0.5 mM MgCl2, 0.5 mM MgSO4, 5 mM Glucose, 20 mM Hepes (pH 7.4), 1% BSA, 1 μM Isoproterenol] • (4) NEFA-C Test Wako (Wako Pure Chemical Industries, Ltd.) Preparation of Screening Materials
# In this operation, the actual concentration of the test compound in the buffer was 1/1000 of the above-described concentration.
# The above-described subcutaneous adipocytes were cultured in 200 μL of an Adipocyte Maintenance Medium in each well for 7 days. During this culturing operation, the medium was exchanged with a fresh one every 3 days. The medium was exchanged by discarding 100 μL of the medium in each well and then adding 100 μL of a fresh Adipocyte Maintenance Medium to the well. Thereafter, the adipocytes were washed with a Lipolysis assay buffer. Subsequently, 50 μL of a Lipolysis assay buffer that contained the above-described test compound was added to each well, and it was then incubated for 5 hours. In order to obtain the measurement value of the test compound in each concentration, 5 wells on a 96-well plate were used with respect to each concentration. As a positive control of a compound having lipolysis suppressive activity, nicotinic acid was used with reference to a previous report [Green A et. al., J. Biol. Chem., 1992, 267(5), 3223-9].
# 40 μL of a culture supernatant was extracted from each well, and the fatty acid concentration in the supernatant was then measured. Such fatty acid concentration was measured as follows, using the above-described NEFA-C Test Wako. 80 μL of liquid A included in the kit was added to 40 μL of the culture supernatant extracted from each well, and the obtained mixture was then incubated at 37° C. for 10 minutes. Thereafter, 160 μL of liquid B was added, and the obtained mixture was further incubated at 37° C. for 10 minutes. Thereafter, the absorbance at a wavelength of 550 nm was measured. At the same time, a standard fatty acid solution included in the kit was diluted to prepare a dilution series having a volume of 40 μL. According to the same operations as described above, liquid A and liquid B were added, and the absorbance was then measured. In accordance with instructions included with the kit, a calibration curve was prepared. Based on the thus prepared calibration curve, the fatty acid concentration in the culture supernatant was calculated. The reduction percentage of the fatty acid concentration was calculated with the following formula, setting the reduction percentage obtained by addition of 100 μM (final concentration) of nicotinic acid at 100%. […]
row,SMILES,IC50 [nM]
1,"CCCCn1cc(C(=O)O)c(NC(=O)CCc2nc(-c3ccc(O)cc3)no2)c1C#N [Example 51, 4-{3-[3-(4-Hydroxyphenyl)-1,2,4-oxadiazol-5-yl]propanoyl}amino-5-cyano-1-butylpyrrole-3-carboxylic acid]",264
2,"CCn1cc(NC(=O)CCn2cnc(-c3ccccc3)c2C)c(C(=O)O)c1 [Example 24, 4-{3-(4-Phenyl-5-methylimidazol-1-yl)propanoyl}amino-1-ethylpyrrole-3-carboxylic acid]",20
3,"CC(C)n1cc(NC(=O)CCc2nc(-c3ccc(O)cn3)no2)c(C(=O)O)c1 [Example 48, 4-{3-[3-(5-Hydroxypyridin-2-yl)-1,2,4-oxadiazol-5-yl]propanoyl}amino-1-isopropylpyrrole-3-carboxylic acid]",1000
4,"CCn1cc(NC(=O)C(F)(F)Cc2cc(-c3ccc(O)cc3)no2)c(C(=O)O)c1 [Example 63, 4-{3-[3-(4-Hydroxyphenyl)isoxazol-5-yl]-2,2-difluoropropanoyl}amino-1-ethylpyrrole-3-carboxylic acid]",13
5,"CCn1cc(NC(=O)C(F)Cc2cc(-c3ccc(O)cc3)no2)c(C(=O)O)c1 (stereo not drawn) [Example 62, 4-{3-[3-(4-Hydroxyphenyl)isoxazol-5-yl]-2-fluoropropanoyl}amino-1-ethylpyrrole-3-carboxylic acid]",28
6,"CCn1cc(NC(=O)CCc2snc(-c3ccc(O)cc3)c2Cl)c(C(=O)O)c1 [Example 57, 4-{3-[4-Chloro-3-(4-hydroxyphenyl)isothiazol-5-yl]propanoylamino}-1-ethylpyrrole-3-carboxylic acid]",161
7,"CCn1cc(NC(=O)CCc2cnn(-c3ccc(O)cc3)c2C(C)C)c(C(=O)O)c1 [Example 56, 4-{3-[1-(4-Hydroxyphenyl)-5-isopropylpyrazol-4-yl]propanoylamino}-1-ethylpyrrole-3-carboxylic acid]",101
8,"Cn1cc(NC(=O)CCc2cnc(-c3ccc(O)c(F)c3)s2)c(C(=O)O)c1 [Example 9, 4-{3-[2-(4-Hydroxy-3-fluorophenyl)thiazol-5-yl]propanoyl}amino-1-methylpyrrole-3-carboxylic acid]",125
9,"CCn1cc(NC(=O)CCc2sc(-c3ccc(O)cc3O)nc2Cl)c(C(=O)O)c1 [Example 21, 4-{3-[4-Chloro-2-(2,4-dihydroxyphenyl)thiazol-5-yl]propanoyl}amino-1-ethylpyrrole-3-carboxylic acid]",41
10,"CCn1cc(NC(=O)CCc2cnc(-c3ccc(O)cc3)s2)c(C(=O)O)c1 [Example 13, 4-{3-[2-(4-Hydroxyphenyl)thiazol-5-yl]propanoyl}amino-1-ethylpyrrole-3-carboxylic acid]",40
11,"CCn1cc(NC(=O)C(F)Cc2cnn(-c3ccccc3)c2C)c(C(=O)O)c1 (stereo not drawn) [Example 26, 4-[2-Fluoro-3-(5-methyl-1-phenylpyrazol-5-yl)propanoyl]amino-1-ethylpyrrole-3-carboxylic acid]",10
12,"CCn1cc(NC(=O)CCc2noc(-c3ccc(O)cc3)c2Cl)c(C(=O)O)c1 [Example 34, 4-{3-[5-(4-Hydroxyphenyl)-4-chloroisoxazol-3-yl]propanoyl}amino-1-ethylpyrrole-3-carboxylic acid]",20
13,"CCn1cc(NC(=O)CCc2onc(-c3ccc(O)cc3F)c2Cl)c(C(=O)O)c1 [Example 43, 4-{3-[4-Chloro-3-(4-hydroxy-2-fluorophenyl)isoxazol-5-yl]propanoyl}amino-1-ethylpyrrole-3-carboxylic acid]",7
14,"Cn1cc(NC(=O)CCc2ccc(-c3ccc(O)cc3)cc2)c(C(=O)O)c1 [Example 1, 4-{3-[4-(4-Hydroxyphenyl)phenyl]propanoyl}amino-1-methylpyrrole-3-carboxylic acid]",1100
15,CCc1c(CC(F)C(=O)Nc2cn(CC)cc2C(=O)O)cnn1-c1ccccc1 (stereo not drawn) [Example 27],36
16,"O=C(CCc1nc(-c2ccc(O)cc2)no1)Nc1cn(Cc2cc(F)cc(F)c2)cc1C(=O)O [Example 16, 4-{3-[(4-Hydroxyphenyl)-1,2,4-oxadiazol-5-yl]propanoyl}amino-1-(3,5-difluorobenzyl)pyrrole-3-carboxylic acid]",29
17,"Cn1cc(NC(=O)CCc2cnc(-c3ccc(O)cc3)o2)c(C(=O)O)c1 [Example 4, 4-{3-[2-(4-Hydroxyphenyl)oxazol-5-yl]propanoyl}amino-1-methylpyrrole-3-carboxylic acid]",232
18,"CCCCn1cc(C(=O)O)c(NC(=O)CCc2nc(-c3ccc(O)cn3)no2)n1 [Example 17, 5-{3-[(5-Hydroxypyridin-2-yl)-1,2,4-oxadiazol-5-yl]propanoyl}amino-2-butylpyrazol-4-carboxylic acid]",49
19,"CCn1cc(NC(=O)C(F)(F)Cc2cnc(-c3ccc(O)cc3)s2)c(C(=O)O)c1 [Example 39, 4-{3-[2-(4-Hydroxyphenyl)thiazol-5-yl]-2,2-difluoropropanoyl}amino-1-ethylpyrrole-3-carboxylic acid]",40
20,"CCn1cc(NC(=O)CCc2onc(-c3ccc(O)cc3)c2C)c(C(=O)O)c1 [Example 38, 4-{3-[(4-Hydroxyphenyl)-4-methylisoxazol-5-yl]propanoyl}amino-1-ethylpyrrole-3-carboxylic acid]",4
21,"CCn1cc(NC(=O)CCc2nnc(-c3ccc(O)cc3)s2)c(C(=O)O)c1 [Example 55, 4-{3-[5-(4-Hydroxyphenyl)[1,3,4]thiadiazole-2-yl]propanoyl}amino-1-ethylpyrrole-3-carboxylic acid]",10
22,"CCn1cc(NC(=O)CCc2cnc(-c3ccc(O)cc3C)s2)c(C(=O)O)c1 [Example 19, 4-{3-[2-(4-Hydroxy-2-methylphenyl)thiazol-5-yl]propanoyl}amino-1-ethylpyrrole-3-carboxylic acid]",93
23,"CCCCn1cc(NC(=O)CCc2cc(-c3ccc(O)cc3)no2)c(C(=O)O)c1 [Example 47, 4-{3-[3-(4-Hydroxyphenyl)isoxazol-5-yl]propanoyl}amino-1-butylpyrrole-3-carboxylic acid]",8
24,"Cn1cc(NC(=O)CCc2nc(-c3ccc(O)cn3)no2)c(C(=O)O)c1 [Example 3, 4-{3-[(5-Hydroxypyridin-2-yl)-1,2,4-oxadiazol-5-yl]propanoyl}amino-1-methylpyrrole-3-carboxylic acid]",7
25,"CCCCn1cc(NC(=O)CCc2cnc(-c3ccc(O)cn3)o2)c(C(=O)O)c1 [Example 11, 4-{3-[2-(5-Hydroxypyridin-2-yl)oxazol-5-yl]propanoyl}amino-1-butylpyrrole-3-carboxylic acid]",88
26,"Cn1cc(NC(=O)CCc2cnc(-c3ccc(O)c(Cl)c3)s2)c(C(=O)O)c1 [Example 10, 4-{3-[2-(3-Chloro-4-hydroxyphenyl)thiazol-5-yl]propanoyl}amino-1-methylpyrrole-3-carboxylic acid]",151
27,"CCc1c(-c2ccc(O)cc2F)noc1CCC(=O)Nc1cn(CC)cc1C(=O)O [Example 45, 4-{3-[4-Ethyl-3-(4-hydroxy-2-fluorophenyl)isoxazol-5-yl]propanoyl}amino-1-ethylpyrrole-3-carboxylic acid]",9
